Results as given in PMC11048362, “Conformational Modulation of Tissue Transglutaminase via Active Site Thiol Alkylating Agents: Size Does Not Matter” (Biomolecules, 2024).

What follows are compounds tested against T1, TG2 (human tissue transglutaminase) (Homo sapiens, UniProt P21980) (assay: colorimetric AL5 hydrolysis at […] nm, Kitz and Wilson time-dependent inactivation, saturation fit). Details: covalent (Cys277), irreversible; 100 µM AL5, corrected for substrate competition; 50 mM MOPS pH 6.91, 15.5 mM CaCl2, 25 °C.
T1 construct: gene TGM2; recombinant, expressed in and purified from E. coli as previously described; catalytic Cys277
T1 sequence (P21980 2-687): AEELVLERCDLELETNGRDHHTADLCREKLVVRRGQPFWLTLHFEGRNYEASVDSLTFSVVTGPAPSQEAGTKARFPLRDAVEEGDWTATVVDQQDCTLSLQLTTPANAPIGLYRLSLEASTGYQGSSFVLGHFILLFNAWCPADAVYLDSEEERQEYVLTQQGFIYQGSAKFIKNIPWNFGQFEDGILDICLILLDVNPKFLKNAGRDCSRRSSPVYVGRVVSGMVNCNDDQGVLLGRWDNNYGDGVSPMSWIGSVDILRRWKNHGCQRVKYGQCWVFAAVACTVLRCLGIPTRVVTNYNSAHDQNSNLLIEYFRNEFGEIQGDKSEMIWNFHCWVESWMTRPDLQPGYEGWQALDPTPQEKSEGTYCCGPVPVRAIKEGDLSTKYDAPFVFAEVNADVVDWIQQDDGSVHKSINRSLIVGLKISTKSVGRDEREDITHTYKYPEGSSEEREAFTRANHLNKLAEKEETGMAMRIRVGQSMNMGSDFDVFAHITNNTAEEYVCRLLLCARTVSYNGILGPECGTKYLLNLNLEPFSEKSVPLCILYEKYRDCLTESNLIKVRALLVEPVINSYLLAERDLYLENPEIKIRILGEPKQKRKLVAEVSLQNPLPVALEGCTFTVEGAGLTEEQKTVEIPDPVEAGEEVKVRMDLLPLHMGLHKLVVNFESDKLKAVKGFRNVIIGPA
Assay type: biochemical

KI (inactivation) | Structure (SMILES)
118 ± 59 µM | C=CC(=O)N1CCN(C(=O)C23CC4CC(CC(C4)C2)C3)CC1 [compound 4, 4]
487 ± 161 µM | C=CC(=O)NCC(=O)N1CCOCC1 [compound 5, 5]
842 ± 25 µM | C=CC(=O)NCC(N)=O [compound 6, 6]

Second part, the compound before the results:

Structure (SMILES) | KI (inactivation)
C=CC(=O)NCC(=O)N1CCN(C(=O)C23CC4CC(CC(C4)C2)C3)CC1 [compound 1, 1] | 3.2 ± 1 µM
C=CC(=O)NCC(=O)N1CCN(C(=O)OC(C)(C)C)CC1 [compound 2, 2] | 129 ± 53 µM
C=CC(=O)NCC(=O)N1CCN(C(C)=O)CC1 [compound 3, 3] | 96 ± 17 µM
C=CC(N)=O [compound 8, acrylamide] | 148 ± 68 µM
